{"source": "patent US11497738B2", "about": "“Di-substituted pyrazole compounds for the treatment of diseases” (FGH BIOTECH, INC., priority 2016, dated 2022)", "tested_on": "SCD1 expression", "assay": "Inhibition assay: qPCR of SCD1 expression in HepG2 cells (Biological Example 1)", "type": "cell-based", "conditions": "Homo sapiens, 24 hours; for inhibition at 10 µM: read-out: Inhibition Percentage (%) 10 μM (SCD1 expression); for inhibition at 1 µM: read-out: Inhibition Percentage (%) 1 μM (SCD1 expression)", "description": "HepG2 cells were grown in Dulbecco's Modified Eagle Medium (DMEM) containing 5% FBS and antibiotic-antimycotic in a humidified incubator at 37° C. with 5% CO2. All three components were purchased from ThermoFisher Scientific (Catalog numbers are 11995073, 26140079, and 15240062, respectively). Treatments were done in duplicates for each dose of each compound. For control and treated each treatment, 400,000 HepG2 cells were seeded onto 1 well of 24-well plate. After one day in culture, cells were treated with the test compound (1 μM and/or 10 μM, as indicated below in Table 1) for 24 hours in DMEM with 5% FBS. Compounds were diluted using DMSO from 20 mM stocks. Total RNAs were extracted using RNA extraction kit (Cat #: 45001163, Fisher Scientific) or Trizol. If Trizol was used, RNAs were treated with DNase I (cat #: 18068015, ThermoFisher Scientific) before qPCR. RNA concentrations were measured on a Nanodrop. One-step qPCR were performed using SYBR Green One Step qPCR Kit (Cat #: B25002, Biotool). 10 ng RNA was used in each 10-ul reaction. Triplicate reactions were done for each RNA sample. qPCR was performed on an ABI StepOnePlus using the program: Holding stage step 1, 50° C. 3 min, step 2, 95° C. 5 min; Cycling stage (40 cycles) step 1, 95° C. 10 sec, step 2, 60° C. 30 sec. Primer sequence was as follows: SCD1, 5′-[…]-3′/5′-[…]-3′.\nAll data was measured in HepG2 cells. % inhibition data of SCD1 expression are provided in Table 1. % inhibition at 10 μM is provided as follows: A≥75%; 75%>B≥50%; 50%>C≥10%. % inhibition at 1 μM is provided as follows: A1≥30%; 30%>B1≥2%. NI means no inhibition in the assay at the indicated concentration of compound tested. NT means not tested."}
{"smiles": "CCCc1cc(-n2cc(-c3ccc(NS(=O)(=O)C4CC4)cc3)cn2)ccn1", "note": "[Example 1, N-(4-(1-(2-propylpyridin-4-yl)-1H-pyrazol-4-yl)phenyl)cyclopropanesulfonamide]", "values": [{"measurement": "inhibition at 10 µM", "value": "> 75", "unit": "%"}]}
{"smiles": "CCCc1cc(-n2cc(-c3ccc(NS(=O)(=O)CC4CC4)cc3)cn2)ccn1", "note": "[Example 2, 1-cyclopropyl-N-(4-(1-(2-propylpyridin-4-yl)-1H-pyrazol-4-yl)phenyl)methanesulfonamide]", "values": [{"measurement": "inhibition at 10 µM", "value": "> 75", "unit": "%"}]}
{"smiles": "CCCc1cc(-n2cc(-c3ccc(NCC(C)C)cc3)cn2)ccn1", "note": "[Example 3, N-isobutyl-4-(1-(2-propylpyridin-4-yl)-1H-pyrazol-4-yl)aniline]", "values": [{"measurement": "inhibition at 10 µM", "value": "> 75", "unit": "%"}]}
{"smiles": "CCCc1cc(-n2cc(-c3ccc(NS(=O)(=O)C(C)C)cc3)cn2)ccn1", "note": "[Example 4, N-(4-(1-(2-propylpyridin-4-yl)-1H-pyrazol-4-yl)phenyl)propane-2-sulfonamide]", "values": [{"measurement": "inhibition at 10 µM", "value": "> 75", "unit": "%"}]}
{"smiles": "CCCc1cc(-n2cc(-c3ccc(NS(=O)(=O)C4CC4)nc3)cn2)ccn1", "note": "[Example 5, N-(5-(1-(2-propylpyridin-4-yl)-1H-pyrazol-4-yl)pyridin-2-yl)cyclopropanesulfonamide]", "values": [{"measurement": "inhibition at 10 µM", "value": "10 to 50", "unit": "%"}]}
{"smiles": "CCCc1cc(-n2cc(-c3ccc(NC(C)C)cc3)cn2)ccn1", "note": "[Example 6, N-isopropyl-4-(1-(2-propylpyridin-4-yl)-1H-pyrazol-4-yl)aniline]", "values": [{"measurement": "inhibition at 10 µM", "value": "> 75", "unit": "%"}]}
{"smiles": "CCCc1cc(-n2cc(-c3ccc(NC(C)C)nc3)cn2)ccn1", "note": "[Example 7, N-isopropyl-5-(1-(2-propylpyridin-4-yl)-1H-pyrazol-4-yl)pyridin-2-amine]", "values": [{"measurement": "inhibition at 10 µM", "value": "> 75", "unit": "%"}]}
{"smiles": "CCCc1cc(-n2cc(-c3ccc(NCC(C)C)nc3)cn2)ccn1", "note": "[Example 8, N-isobutyl-5-(1-(2-propylpyridin-4-yl)-1H-pyrazol-4-yl)pyridin-2-amine]", "values": [{"measurement": "inhibition at 10 µM", "value": "> 75", "unit": "%"}]}
{"smiles": "CCCc1cc(-n2cc(-c3ccc(NS(C)(=O)=O)cc3Cl)cn2)ccn1", "note": "[Example 9, N-(3-chloro-4-(1-(2-propylpyridin-4-yl)-1H-pyrazol-4-yl)phenyl)methanesulfonamide]", "values": [{"measurement": "inhibition at 1 µM", "value": "≥ 30", "unit": "%"}, {"measurement": "inhibition at 10 µM", "value": "> 75", "unit": "%"}]}
{"smiles": "CCCc1cc(-n2cc(-c3ccc(NS(=O)(=O)C4CC4)cc3Cl)cn2)ccn1", "note": "[Example 10, N-(3-chloro-4-(1-(2-propylpyridin-4-yl)-1H-pyrazol-4-yl)phenyl)cyclopropanesulfonamide]", "values": [{"measurement": "inhibition at 1 µM", "value": "≥ 30", "unit": "%"}, {"measurement": "inhibition at 10 µM", "value": "> 75", "unit": "%"}]}
{"smiles": "CCCc1cc(-n2cc(-c3ccc(NS(=O)(=O)C(F)(F)F)cc3Cl)cn2)ccn1", "note": "[Example 11, N-(3-chloro-4-(1-(2-propylpyridin-4-yl)-1H-pyrazol-4-yl)phenyl)-1,1,1-trifluoromethanesulfonamide]", "values": [{"measurement": "inhibition at 10 µM", "value": "10 to 50", "unit": "%"}]}
{"smiles": "CCCc1cc(-n2cc(-c3ccc(NC(C)C)cc3Cl)cn2)ccn1", "note": "[Example 13, 3-chloro-N-isopropyl-4-(1-(2-propylpyridin-4-yl)-1H-pyrazol-4-yl)aniline]", "values": [{"measurement": "inhibition at 1 µM", "value": "≥ 30", "unit": "%"}, {"measurement": "inhibition at 10 µM", "value": "> 75", "unit": "%"}]}
{"smiles": "CCCc1cc(-n2cc(-c3ccc(NCC(C)C)cc3Cl)cn2)ccn1", "note": "[Example 14, 3-chloro-N-isobutyl-4-(1-(2-propylpyridin-4-yl)-1H-pyrazol-4-yl)aniline]", "values": [{"measurement": "inhibition at 1 µM", "value": "≥ 30", "unit": "%"}, {"measurement": "inhibition at 10 µM", "value": "> 75", "unit": "%"}]}
{"smiles": "CCCc1cc(-n2cc(-c3ccc(NCC(C)C)cn3)cn2)ccn1", "note": "[Example 15, N-isobutyl-6-(1-(2-propylpyridin-4-yl)-1H-pyrazol-4-yl)pyridin-3-amine]", "values": [{"measurement": "inhibition at 1 µM", "value": "2 to 30", "unit": "%"}, {"measurement": "inhibition at 10 µM", "value": "> 75", "unit": "%"}]}
{"smiles": "CCCc1cc(-n2cc(-c3ccc(NCC4CC4)cn3)cn2)ccn1", "note": "[Example 16, N-(cyclopropylmethyl)-6-(1-(2-propylpyridin-4-yl)-1H-pyrazol-4-yl)pyridin-3-amine]", "values": [{"measurement": "inhibition at 1 µM", "value": "2 to 30", "unit": "%"}, {"measurement": "inhibition at 10 µM", "value": "> 75", "unit": "%"}]}
{"smiles": "CCCc1cc(-n2cc(-c3ccc(NCC4CC4)cc3Cl)cn2)ccn1", "note": "[Example 17, 3-chloro-N-(cyclopropylmethyl)-4-(1-(2-propylpyridin-4-yl)-1H-pyrazol-4-yl)aniline]", "values": [{"measurement": "inhibition at 1 µM", "value": "≥ 30", "unit": "%"}, {"measurement": "inhibition at 10 µM", "value": "> 75", "unit": "%"}]}
